Assay results published in patent US8722715B2, “Antimicrobial oxazolidinone, hydantoin and imidazolidinone compositions” (NovaBay Pharmaceuticals, priority 2008, dated 2014).

Columns and labels:
Type in all cases: cell-based
[1] = tested on: Escherichia coli (ATCC 25922); experiment: Antimicrobial activity, MBC, E. coli ATCC 25922; settings: 1 h at room temperature
Procedure: (§1) To determine antimicrobial activity of compounds of the present disclosure, Escherichia coli (ATCC 25922), Staphylococcus aureus (ATCC 29213), Pseudomonas aeruginosa (ATCC 27853), and Candida albicans (ATCC 10231) were used in primary screening. In addition, Escherichia coli (MCC 80392), Staphylococcus aureus (MCC 91731), Pseudomonas aeruginosa (MCC 4438), and Candida albicans (MCC 50319), provided by Alcon Laboratories, Fort Worth, Tex., were used. The microbial cultures were diluted in sterile saline pH 4 to prepare inocula. Test compounds were titrated by stepwise two-fold dilutions in sterile saline pH 4. A total of 1.0×10^5 to 1.0×10^6 Colony Forming Units (CFU)/mL microbe was added to each tube, mixed by gentle vortexing, and then incubated at room temperature for 1 h. Microbial plating on Petri dishes (Tryptic Soy agar or Saboraud's Dextrose agar) was performed immediately after the designated exposure after neutralization of the test article dilutions in Dey-Engley Broth. Plates were incubated at 37° C., and the numbers of microbes were counted by direct colony count to quantitate the surviving microbes as CFU/mL. Positive growth controls were made with sterile 0.9% saline. Compounds were dissolved in unbuffered isotonic saline (SAL) or phosphate buffered saline (PBS) at pH 4 or pH 7 (using HCl and/or NaOH as needed). All compounds were tested three times. The results are tabulated to show the comparison of antimicrobial effectiveness range of the compounds. Data shown are the Minimum Bactericidal Concentration (MBC) or Minimum Fungicidal Concentration (MFC) (≧99.9% kill) in μg/mL.

[2] = tested on: Candida albicans (ATCC 10231); experiment: Antimicrobial activity, MFC, C. albicans ATCC 10231; settings: 1 h at room temperature
Procedure: as §1

[3] = tested on: Staphylococcus aureus (ATCC 29213); experiment: Antimicrobial activity, MBC, S. aureus ATCC 29213; settings: 1 h at room temperature
Procedure: as §1

[4] = tested on: mouse fibroblast cells (ATCC CCL-1, L929); experiment: Cytotoxicity, WST-8 colorimetric assay; settings: pH 4 (Sal), 60 min exposure, WST-8 read after 18-20 hours
Procedure: Cytotoxicity is assessed by a colorimetric assay system using the Dojindo™ cell counting kit containing 2-(2-methoxy-4-nitrophenyl)-3-(4-nitrophenyl)-5-(2,4-disulfophenyl)-2H-tetrazolium, monosodium salt (WST-8). In this assay, the WST-8 reagent is bioreduced by cellular dehydrogenases to a formazan product that is highly soluble in tissue culture medium. The orange formazan, which is produced only by live cells, is a direct measure of cell viability and can be read spectrophotometrically (e.g., evaluation of a soluble tetrazolium/formazan assay for cell growth and drug sensitivity in culture using human and other tumor cell lines is described by D. A. Scudiero et al., Cancer Res., 48(17), 4827-33 (1988). Similar approaches for determining the cell viability are known in the art.
In a standard assay, mouse fibroblast cells (ATCC CCL-1, L929), are cultured in Minimum Essential Medium, α-medium supplemented with 10% heat inactivated fetal bovine serum, L-glutamine, penicillin and streptomycin. Cells are trypsinized and counted under the microscope and seeded at 1.5×10^4 total cells per 100 μL per well of a flat-bottom 96-well plate in order to achieve ˜80% confluence after overnight incubation at 37° C. […]
Test articles were prepared as 2-fold serial dilutions and 170 μL of each dilution was added into each of 4-wells (total volume per well=200 μL). […] Absorbance was read at 450 nm with reference wavelength at 750 nm using Molecular Device SpectraMax M5 plate reader. […]
The CT50 value for each compound was calculated from the absorbance values (A450/750) and is defined as the concentration of test article that results in survival of 50% of the cells following treatment. The absorbance A450/750 from each well of untreated cells and from each well within the dilution series was measured. […] Next, a non-linear regression (curve fit) analysis was performed on all the absorbance data measured from the dilution series, including the absorbance data obtained from wells of the untreated control cells. […]

[5] = tested on: Candida albicans (MCC 50319); experiment: Antimicrobial activity, MFC, C. albicans MCC 50319; settings: 1 h at room temperature
Procedure: as §1, with “The results are tabulated to show the comparison of antimicrobial effectiveness range of the compounds. Data shown are the Minimum Bactericidal Concentration (MBC) or Minimum Fungicidal Concentration (MFC) (≧99.9% kill) in μg/mL.” left out

[6] = tested on: Escherichia coli (MCC 80392); experiment: Antimicrobial activity, MBC, E. coli MCC 80392; settings: 1 h at room temperature
Procedure: as §1, with “The results are tabulated to show the comparison of antimicrobial effectiveness range of the compounds. Data shown are the Minimum Bactericidal Concentration (MBC) or Minimum Fungicidal Concentration (MFC) (≧99.9% kill) in μg/mL.” left out

[7] = tested on: Staphylococcus aureus (MCC 91731); experiment: Antimicrobial activity, MBC, S. aureus MCC 91731; settings: 1 h at room temperature
Procedure: as §1, with “The results are tabulated to show the comparison of antimicrobial effectiveness range of the compounds. Data shown are the Minimum Bactericidal Concentration (MBC) or Minimum Fungicidal Concentration (MFC) (≧99.9% kill) in μg/mL.” left out

[8] = tested on: Pseudomonas aeruginosa (ATCC 27853); experiment: Antimicrobial activity, MBC, P. aeruginosa ATCC 27853; settings: pH 7 (PBS), 1 h at room temperature
Procedure: as §1, with “The results are tabulated to show the comparison of antimicrobial effectiveness range of the compounds. Data shown are the Minimum Bactericidal Concentration (MBC) or Minimum Fungicidal Concentration (MFC) (≧99.9% kill) in μg/mL.” left out

C[N+]1(C)CCC2(CC1)CN(Cl)C(=O)O2.[Cl-] [Compound 22-36, 3-chloro-8,8-dimethyl-2-oxo-1-oxa-3-aza-8-azoniaspiro[4.5]decane chloride]
Minimum Bactericidal Concentration (MBC) (≧99.9% kill) ([1]; pH 4 (Sal)): 256 µg/mL | Minimum Bactericidal Concentration (MBC) (≧99.9% kill) ([1]; pH 7 (PBS)): 16 µg/mL | Minimum Fungicidal Concentration (MFC) (≧99.9% kill) ([2]; pH 7 (PBS)): 256 µg/mL | Minimum Bactericidal Concentration (MBC) (≧99.9% kill) ([3]; pH 4 (Sal)): 512 µg/mL | Minimum Bactericidal Concentration (MBC) (≧99.9% kill) ([3]; pH 7 (PBS)): 32 µg/mL | CT50 (concentration of test article that results in survival of 50% of the cells) [4]: 0.7 mM

CC1(C[N+](C)(C)C)COC(=O)N1Cl.[Cl-] (centres unmarked) [Compound 22-04, 1-(3-Chloro-4-methyl-2-oxooxazolidin-4-yl)-N,N,N-trimethylmethanaminium chloride]
Minimum Bactericidal Concentration (MBC) (≧99.9% kill) ([1]; pH 4 (Sal)): 16 µg/mL | Minimum Fungicidal Concentration (MFC) (≧99.9% kill) ([2]; pH 4 (Sal)): >256 µg/mL | Minimum Bactericidal Concentration (MBC) (≧99.9% kill) ([3]; pH 4 (Sal)): 64 µg/mL

CC[N+](C)(C)CC1(C)COC(=O)N1Cl.[Cl-] (centres unmarked) [Compound 22-38, N-((3-chloro-4-methyl-2-oxooxazolidin-4-yl)methyl)-N,N-dimethylethanaminium chloride]
Minimum Bactericidal Concentration (MBC) (≧99.9% kill) ([1]; pH 4 (Sal)): 16 µg/mL | Minimum Bactericidal Concentration (MBC) (≧99.9% kill) ([1]; pH 7 (PBS)): 2 µg/mL | Minimum Fungicidal Concentration (MFC) (≧99.9% kill) ([2]; pH 7 (PBS)): 8 µg/mL | Minimum Bactericidal Concentration (MBC) (≧99.9% kill) ([3]; pH 4 (Sal)): 64 µg/mL | Minimum Bactericidal Concentration (MBC) (≧99.9% kill) ([3]; pH 7 (PBS)): 4 µg/mL | CT50 (concentration of test article that results in survival of 50% of the cells) [4]: 0.86 mM

CC1(CS(=O)(=O)O)COC(=O)N1Cl (centres unmarked) [Compound 22-01, (3-chloro-4-methyl-2-oxooxazolidin-4-yl)methanesulfonic acid]
Minimum Bactericidal Concentration (MBC) (≧99.9% kill) ([1]; pH 4 (Sal)): 256 µg/mL | Minimum Bactericidal Concentration (MBC) (≧99.9% kill) ([1]; pH 7 (PBS)): 128 µg/mL | Minimum Fungicidal Concentration (MFC) (≧99.9% kill) ([2]; pH 4 (Sal)): >512 µg/mL | Minimum Fungicidal Concentration (MFC) (≧99.9% kill) ([2]; pH 7 (PBS)): 1024 µg/mL | Minimum Bactericidal Concentration (MBC) (≧99.9% kill) ([3]; pH 4 (Sal)): 256 µg/mL | Minimum Bactericidal Concentration (MBC) (≧99.9% kill) ([3]; pH 7 (PBS)): 256 µg/mL | Minimum Fungicidal Concentration (MFC) (≧99.9% kill) ([5]; pH 4 (Sal)): 128 µg/mL | Minimum Fungicidal Concentration (MFC) (≧99.9% kill) ([5]; pH 7 (PBS)): 128 µg/mL | Minimum Bactericidal Concentration (MBC) (≧99.9% kill) ([6]; pH 4 (Sal)): 2 µg/mL | Minimum Bactericidal Concentration (MBC) (≧99.9% kill) ([6]; pH 7 (PBS)): 16 µg/mL | Minimum Bactericidal Concentration (MBC) (≧99.9% kill) ([7]; pH 4 (Sal)): 16 µg/mL | Minimum Bactericidal Concentration (MBC) (≧99.9% kill) ([7]; pH 7 (PBS)): 16 µg/mL | CT50 (concentration of test article that results in survival of 50% of the cells) [4]: 1.1 mM | Minimum Bactericidal Concentration (MBC) (≧99.9% kill) [8]: 256 µg/mL

CN1C(=O)N(Cl)C(C)(C[N+](C)(C)C)C1=O.[Cl-] (centres unmarked) [Compound 22-27, 1-(3-chloro-1,4-dimethyl-2,5-dioxoimidazolidin-4-yl)-N,N,N-trimethylmethanaminium chloride]
Minimum Bactericidal Concentration (MBC) (≧99.9% kill) ([1]; pH 4 (Sal)): 16 µg/mL | Minimum Fungicidal Concentration (MFC) (≧99.9% kill) ([2]; pH 4 (Sal)): >256 µg/mL | Minimum Bactericidal Concentration (MBC) (≧99.9% kill) ([3]; pH 4 (Sal)): 64 µg/mL

2-(3-Chloro-4,4-dimethyl-2,5-dioxoimidazolidin-1-yl)-N,N,N-trimethylethanaminium chloride [Compound 22-48]
Minimum Bactericidal Concentration (MBC) (≧99.9% kill) ([1]; pH 4 (Sal)): 128 µg/mL | Minimum Bactericidal Concentration (MBC) (≧99.9% kill) ([1]; pH 7 (PBS)): 4 µg/mL | Minimum Fungicidal Concentration (MFC) (≧99.9% kill) ([2]; pH 4 (Sal)): 1024 µg/mL | Minimum Fungicidal Concentration (MFC) (≧99.9% kill) ([2]; pH 7 (PBS)): 128 µg/mL | Minimum Bactericidal Concentration (MBC) (≧99.9% kill) ([3]; pH 4 (Sal)): >128 µg/mL | Minimum Bactericidal Concentration (MBC) (≧99.9% kill) ([3]; pH 7 (PBS)): 16 µg/mL
